Marks after values point to notes of the source that are not given here.
Legend:
Format in all cases: in vivo
[1] = tested on: C57BL/6J mice on high-fat diet (HFD); experiment: Hepatic lipids in HFD mice; conditions: 4 weeks
Experimental: (§1) The following experiment was performed and approved by the guidelines of the Institutional Animal Care and Use Committee of Central Taiwan University of Science and Technology. The 4-week old male C57BL/6J mice (total amount n=63) were purchased from the National Laboratory Animal Breeding and Research Center (Taipei, Taiwan). After acclimatization for one week, all of the mice were divided randomly into the control (CON) group and the high-fat diet (HFD) group. For the following 12 weeks, the CON group (n=9) was kept on a low-fat diet (Diet 12450B, Research Diets, Inc., New Brunswick, N.J., USA), while the HFD group (n=54) was exposed to a high-fat diet (Diet 12451, Research Diets, New Brunswick, N.J., USA). The low-fat diet was composed of protein 20%, carbohydrate 70% and fat 10%, whereas the high-fat diet was composed of protein 20%, carbohydrate 35%, and fat 45% (of total energy, % kcal). After HFD exposure for 8 weeks, the HFD group was further randomly subdivided into 6 groups (n=9 per group) to receive different treatments by oral gavage once daily for four weeks and on HFD. […] The HF+B1, HF+B2, and […] are collectively termed BB-treated HFD groups in the following examples. The CON mice were administered vehicle. After dosing for 4 weeks, the mice were given no food at night and sacrificed after 12 h of fasting on the next day. All of the individual tissues were collected and weighed, and portions were instantly frozen using liquid nitrogen and kept at −80° C. for subsequent target gene analysis. Blood samples (0.8 mL) were collected for analysis of blood parameters.
For hepatic lipid extraction, a 0.375 g liver samples were homogenized with 1 mL distill water for 5 minutes. The dried pellet was finally resuspended in 0.5 mL ethanol and analyzed using a triglycerides kit as used for analyzing the serum lipids set forth above.

[2] = tested on: GPAT; experiment: Semi-quantitative RT-PCR of liver mRNA: GPAT; conditions: HFD mice, 4 weeks, vs HF group
Experimental: as §1, with “For the following 12 weeks, the CON group (n=9) was kept on a low-fat diet (Diet 12450B, Research Diets, Inc., New Brunswick, N.J., USA), while the HFD group (n=54) was exposed to a high-fat diet (Diet 12451, Research Diets, New Brunswick, N.J., USA). The low-fat diet was composed of protein 20%, carbohydrate 70% and fat 10%, whereas the high-fat diet was composed of protein 20%, carbohydrate 35%, and fat 45% (of total energy, % kcal).” left out
Total RNA from liver tissue of mice was isolated with a Trizol Reagent (Molecular Research Center, Inc., Cincinnati, Ohio, USA) according to the manufacturer's instructions. The integrity of the extracted total RNA was examined by 2% agarose gel electrophoresis, and the RNA concentration was determined by the ultraviolet (UV) light absorbency at 260 nm and 280 nm (Spectrophotometer U-2800A, Hitachi). The quality of the RNA was confirmed by ethidium bromide staining of 18S and 28S ribosomal RNA after electrophoresis on 2% agarose gel containing 6% formaldehyde.
Levels of mRNA of genes of interest were quantified by semi-quantitative reverse transcription polymerase chain reaction (RT-PCR). […] PCR products were analyzed by 2% agarose gels and stained with ethidium bromide.

[3] = tested on: hepatocytes of HFD mice; experiment: Histology of liver tissue (hepatocellular ballooning); conditions: 4 weeks, grade 0 absence, 1 a few cells
Experimental: as §1
Small pieces of epididymal white adipose tissue and liver tissue were fixed with formalin (200 g/kg) neutral buffered solution and embedded in paraffin. Sections of 8 μm […] were cut and stained with hematoxylin and eosin. For microscopic examination, a microscope (Leica, DM2500) was used, and the images were taken using a Leica Digital Camera (DFC-425-C).
Based on previous report, the designation of histological hepatocellular ballooning findings include grade 0 for absence of degeneration, grade 1 for degeneration in a few cells, and […] for degeneration in many cells.

SMILES: OCC1O[C@@H](O[C@@H]2Cc3c(O)cc(O)cc3O[C@@H]2c2ccc(O)c(O)c2)C(O)C(O)[C@@H]1O (single isomer, unassigned; (-)) [compound of formula I, (−)-epicatechin-3-O-β-D-allopyranoside]
- Liver lipids Total lipid ([1]; 10 mg/kg/day oral gavage): 71.9 ± 6.5^d mg/g
- Liver lipids Triacylglycerol ([1]; 10 mg/kg/day oral gavage): 49.9 ± 8.0^d μmol/g
- Liver lipids Total lipid ([1]; 20 mg/kg/day oral gavage): 66.1 ± 6.9^e mg/g
- Liver lipids Triacylglycerol ([1]; 20 mg/kg/day oral gavage): 42.8 ± 6.5^f μmol/g
- Liver lipids Total lipid ([1]; 40 mg/kg/day oral gavage): 60.2 ± 5.2^f mg/g
- Liver lipids Triacylglycerol ([1]; 40 mg/kg/day oral gavage): 40.8 ± 4.6^f μmol/g
- liver mRNA level of GPAT ([2]; 10 mg/kg/day oral gavage): significantly reduced
- liver mRNA level of GPAT ([2]; 20 mg/kg/day oral gavage): significantly reduced
- liver mRNA level of GPAT ([2]; 40 mg/kg/day oral gavage): significantly reduced
- hepatocellular ballooning mean score ([3]; 10 mg/kg/day oral gavage): 0.7±0.1
- hepatocellular ballooning mean score ([3]; 20 mg/kg/day oral gavage): 0.5±0.2
- hepatocellular ballooning mean score ([3]; 40 mg/kg/day oral gavage): 0.4±0.1
